# Laboratory results from patent US10988508B2, “Synthetic N-acetyl-muramic acid derivatives and uses thereof” (University of Delaware, priority 2015, dated 2021).
# “Also recorded” adds a separate entry of the source. Where two headings read alike, the source gives them in different places.
# What was measured:
# Nod2 [1] = target: T1, Nod2 (Homo sapiens, UniProt Q9HC29); assay: Nod2 half-life by cycloheximide chase and western blot in HEK 293T-Nod2myc/Tet-op cells; type: cell-based; set-up: expressed in transfected cells; host or cells: HEK293T; details: for stabilization of Nod2 (in words): compared to untreated control
# T1 sequence (Q9HC29 whole entry): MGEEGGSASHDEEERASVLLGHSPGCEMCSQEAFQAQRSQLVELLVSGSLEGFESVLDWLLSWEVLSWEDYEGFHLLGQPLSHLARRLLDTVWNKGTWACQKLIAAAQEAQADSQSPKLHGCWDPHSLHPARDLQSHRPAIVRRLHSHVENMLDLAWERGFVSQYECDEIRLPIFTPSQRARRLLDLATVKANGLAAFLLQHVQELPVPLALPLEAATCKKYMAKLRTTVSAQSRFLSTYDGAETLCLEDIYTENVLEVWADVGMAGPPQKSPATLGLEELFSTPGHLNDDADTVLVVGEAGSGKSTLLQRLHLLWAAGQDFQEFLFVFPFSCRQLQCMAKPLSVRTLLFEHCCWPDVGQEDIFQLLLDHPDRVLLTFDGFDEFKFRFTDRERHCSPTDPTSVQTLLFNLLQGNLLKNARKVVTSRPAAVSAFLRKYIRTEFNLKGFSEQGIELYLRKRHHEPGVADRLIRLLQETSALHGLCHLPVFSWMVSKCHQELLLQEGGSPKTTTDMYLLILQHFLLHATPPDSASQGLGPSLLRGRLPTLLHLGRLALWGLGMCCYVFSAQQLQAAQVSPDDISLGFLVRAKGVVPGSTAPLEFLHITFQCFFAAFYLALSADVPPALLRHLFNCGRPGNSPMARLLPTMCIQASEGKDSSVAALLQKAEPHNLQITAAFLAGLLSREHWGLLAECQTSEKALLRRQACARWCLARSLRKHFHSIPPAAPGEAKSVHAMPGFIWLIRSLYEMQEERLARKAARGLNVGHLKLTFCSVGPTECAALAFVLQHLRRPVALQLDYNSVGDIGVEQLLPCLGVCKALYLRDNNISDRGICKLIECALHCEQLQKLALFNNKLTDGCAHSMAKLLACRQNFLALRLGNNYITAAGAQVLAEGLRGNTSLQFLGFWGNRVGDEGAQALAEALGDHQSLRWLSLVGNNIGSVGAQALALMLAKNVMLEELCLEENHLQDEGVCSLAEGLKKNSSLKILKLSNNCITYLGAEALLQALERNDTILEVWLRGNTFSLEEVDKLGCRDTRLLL
# Description: HEK 293T-Nod2myc/Tet-op cells were incubated with MDP derivatives (compound D2 is shown) or water (Ctrl) and lysates were collected after cycloheximide treatment during the indicated time intervals. Equal amount of lysates were subjected to western blot and probed using rabbit anti-myc antibody. β-actin was used as a loading control.
# Nod2 is a transiently stable protein. It is well-known that ligand binding can affect the stability of a receptor. We considered that the interaction of peptidoglycan derivatives with Nod2 could alter the stability of the protein. In order to determine if ligand interaction changes the half-life of Nod2, we analyzed the naturally occurring MDPs (D2, D9, D1), and a subset of the peptidoglycan derivatives with increased activity (D24, D25) or structural similarity (D53, D16) to D2 or D9. We made use of a tetracycline-induced Nod2 expressing cell line, an excellent match for endogenous Nod2 cell lines, and cycloheximide inhibition of protein synthesis to determine the half-life of Nod2 in the presence of the MDP derivatives. Half-life was determined by first order decay according to literature precedent. […] When Nod2 is not treated with a peptidoglycan derivative, the half-life is 7.1±1.4 hours. […] As compound D1 is the only compound tested that contains an amine, which will be positively charged at cellular pH, we were concerned that cell permeability may be a factor. We analyzed the ability of 6-amino-MDP (18 in Table 4), a MDP derivative that replaces the 6-primary-hydroxy group with an amine.
# Nod2 [2] = target: T1, Nod2; assay: Nod2-dependent NF-κB luciferase reporter assay in transfected HEK293T cells; details: 20 μM; for NF-KB Fold Activation ± SD: 12 h, HEK293T, (+) Nod2 plasmid normalized to (−) Nod2 plasmid
# Nod2 [3] = target: T1, Nod2; set-up: expressed in transfected cells; host or cells: HEK293T; details: cited from earlier work
# E. coli ΔmurQ-KU cells = assay: in vivo peptidoglycan remodeling and CuAAC fluorophore labeling, visualized by SIM; type: cell-based; details: 0.2% (w/v) sugar, fosfomycin 200 μg/mL, IPTG 1 mM, CuAAC with rhodamine or Cy-5
# [4] = system: E. coli cells with AmgK, MurU and ΔMurQ; assay: labeling efficiency by flow cytometry (FACS) after click with Cy-5; type: cell-based; details: after CuAAC with Cy-5
# mouse Nod2 = target: T2, mouse Nod2 (Mus musculus, UniProt Q8K3Z0); details: 200 μM, protein synthesis not inhibited; cited from earlier work
# T2 sequence (Q8K3Z0 1-1020): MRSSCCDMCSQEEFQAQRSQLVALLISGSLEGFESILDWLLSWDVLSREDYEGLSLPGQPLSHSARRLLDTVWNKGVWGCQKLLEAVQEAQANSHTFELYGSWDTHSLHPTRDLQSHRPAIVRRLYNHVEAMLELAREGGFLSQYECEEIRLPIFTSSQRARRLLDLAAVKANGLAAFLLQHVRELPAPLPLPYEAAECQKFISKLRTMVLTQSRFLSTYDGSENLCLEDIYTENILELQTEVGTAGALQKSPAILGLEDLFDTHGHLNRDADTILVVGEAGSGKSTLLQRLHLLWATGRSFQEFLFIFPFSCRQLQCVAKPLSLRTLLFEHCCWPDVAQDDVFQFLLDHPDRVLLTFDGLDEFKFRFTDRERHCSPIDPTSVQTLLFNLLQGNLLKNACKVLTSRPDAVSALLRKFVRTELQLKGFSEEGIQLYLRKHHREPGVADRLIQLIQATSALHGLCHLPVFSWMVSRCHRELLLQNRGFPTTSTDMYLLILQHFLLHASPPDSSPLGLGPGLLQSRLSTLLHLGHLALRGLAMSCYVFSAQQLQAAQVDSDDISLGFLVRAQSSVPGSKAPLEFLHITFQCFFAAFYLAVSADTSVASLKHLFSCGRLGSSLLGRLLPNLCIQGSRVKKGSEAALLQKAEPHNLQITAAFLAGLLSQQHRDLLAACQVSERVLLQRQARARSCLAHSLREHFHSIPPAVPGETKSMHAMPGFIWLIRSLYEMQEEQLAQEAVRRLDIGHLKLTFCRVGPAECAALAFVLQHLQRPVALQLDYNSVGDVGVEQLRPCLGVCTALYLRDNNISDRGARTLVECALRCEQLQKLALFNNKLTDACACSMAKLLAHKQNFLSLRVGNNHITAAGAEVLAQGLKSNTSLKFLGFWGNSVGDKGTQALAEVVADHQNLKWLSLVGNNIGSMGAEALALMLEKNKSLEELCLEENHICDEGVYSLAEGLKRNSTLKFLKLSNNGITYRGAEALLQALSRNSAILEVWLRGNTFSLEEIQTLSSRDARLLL
# Nod2 [5] = target: T1, Nod2; assay: in vitro binding assay of Nod2; set-up: expressed in transfected cells; host or cells: HEK293T
# Description: This could be from either the endogenous Nod2 and/or other targets of the bacterial cell wall ligands.
compound,measurement,setting,value
"C[C@@H](NC(=O)[C@@H](C)OC1C(NC(=O)CO)[C@@H](O)OC(CO)[C@H]1O)C(=O)NC(CCC(=O)O)C(N)=O (some centres unmarked) [D9, N-glycolyl-MDP]",stabilization of Nod2 (in words),Nod2 [1],capable of stabilizing Nod2
same,NF-KB Fold Activation ± SD,Nod2 [2],3.1 ± 0.3 Fold
CC(=O)NC1C(O)OC(CN)C(O)[C@@H]1O[C@H](C)C(=O)N[C@@H](C)C(=O)N[C@H](CCC(=O)O)C(N)=O (some centres unmarked) [6-amino-MDP],increase of the half-life of Nod2,Nod2 [1]; versus untreated,~3 fold
same,NF-κB activation in a Nod2-dependent manner (known),Nod2 [3],activate NF-κB in a Nod2-dependent manner
same,NF-KB Fold Activation ± SD,Nod2 [3]; value marked with reference 19,2.8 ± 0.1^19 Fold
"C[C@H](NC(=O)[C@@H](C)O[C@@H]1[C@@H](N)[C@H](O)O[C@H](CO)[C@H]1O)C(=O)N[C@H](CCC(=O)O)C(N)=O [D1, (R)-5-amino-4-((S)-2-((R)-2-(((2R,3R,4R,5S,6R)-3-amino-2,5-dihydroxy-6-(hydroxymethyl)tetrahydro-2H-pyran-4-yl)oxy)propanamido)propanamido)-5-oxopentanoic acid]",stabilization of Nod2 (in words),Nod2 [1],no stabilization of Nod2; also recorded: did not stabilize; also recorded: no stabilizing effect
same,NF-κB activation (in words),Nod2 [2],did not activate NF-κB; also recorded: does not elicit an immune response via the Nod2-dependent pathway
same,NF-KB Fold Activation ± SD,Nod2 [2],No activation
"CC(=O)N[C@H]1C(O)O[C@H](CO)[C@@H](O)[C@@H]1O[C@H](C)C(=O)O (some centres unmarked) [A2, N-acetyl-muramic acid]",fluorescent labeling of cells under SIM,E. coli ΔmurQ-KU cells,couldn't detect any fluorescence
same,fluorescent signal in the gated Cy-5 channel,[4],slight fluorescence intensity
"CC(=O)N[C@H]1C(O)O[C@H](CO)[C@@H](O)[C@@H]1O[C@H](C)C(=O)N[C@@H](C)C(=O)N[C@H](CCC(=O)O)C(N)=O (some centres unmarked) [D2, N-acetyl-MDP]",stabilization of Nod2 (in words),Nod2 [1],capable of stabilizing Nod2
same,NF-KB Fold Activation ± SD,Nod2 [2],1.8 ± 0.3 Fold
same,effect on Nod2 level,mouse Nod2,led to the degradation of Nod2
same,Kd,Nod2 [5],0.051 µM
